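Method: 48-hour compound exposure of cells in 96-well plates, five concentrations, linear interpolation of endpoints. TGI denotes the concentration required for complete inhibition of growth.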
Key:
Experiment in all cases: NCI-60 cell line screen, 48 h
TK-10 renal = test system: TK-10 renal
786-0 renal = test system: 786-0 renal
COLO 205 colon = test system: COLO 205 colon
SF-539 CNS = test system: SF-539 CNS
NCI/ADR-RES ovarian = test system: NCI/ADR-RES ovarian
CCRF-CEM leukemia = test system: CCRF-CEM leukemia
HCT-15 colon = test system: HCT-15 colon
SNB-75 CNS = test system: SNB-75 CNS
EKVX NSCLC = test system: EKVX NSCLC
MALME-3M melanoma = test system: MALME-3M melanoma
SK-MEL-5 melanoma = test system: SK-MEL-5 melanoma
HOP-92 NSCLC = test system: HOP-92 NSCLC
NCI-H460 lung = test system: NCI-H460 lung
U251 CNS = test system: U251 CNS
MOLT-4 leukemia = test system: MOLT-4 leukemia
CAKI-1 renal = test system: CAKI-1 renal
HCC-2998 colon = test system: HCC-2998 colon
OVCAR-4 ovarian = test system: OVCAR-4 ovarian
IGROV1 ovarian = test system: IGROV1 ovarian
SF-295 CNS = test system: SF-295 CNS
MDA-MB-435 = test system: MDA-MB-435
NCI-H226 lung = test system: NCI-H226 lung
SK-MEL-2 melanoma = test system: SK-MEL-2 melanoma
UO-31 renal = test system: UO-31 renal
HOP-62 NSCLC = test system: HOP-62 NSCLC
SW-620 colon = test system: SW-620 colon
SK-MEL-28 melanoma = test system: SK-MEL-28 melanoma
UACC-62 melanoma = test system: UACC-62 melanoma
HL-60(TB) leukemia = test system: HL-60(TB) leukemia
HT29 colon = test system: HT29 colon
M14 melanoma = test system: M14 melanoma
T-47D breast = test system: T-47D breast
SK-OV-3 ovarian = test system: SK-OV-3 ovarian
SNB-19 CNS = test system: SNB-19 CNS
UACC-257 melanoma = test system: UACC-257 melanoma
K-562 leukemia = test system: K-562 leukemia
NCI-H522 lung = test system: NCI-H522 lung
LOX IMVI melanoma = test system: LOX IMVI melanoma
NCI-H23 lung = test system: NCI-H23 lung
BT-549 breast = test system: BT-549 breast
PC-3 prostate = test system: PC-3 prostate
OVCAR-8 ovarian = test system: OVCAR-8 ovarian
OVCAR-3 ovarian = test system: OVCAR-3 ovarian
SN12C renal = test system: SN12C renal
RPMI-8226 leukemia = test system: RPMI-8226 leukemia
MDA-N = test system: MDA-N
HS 578T breast = test system: HS 578T breast
A549 NSCLC = test system: A549 NSCLC
MDA-MB-231 breast = test system: MDA-MB-231 breast
DU-145 prostate = test system: DU-145 prostate
SR leukemia = test system: SR leukemia
HCT-116 colon = test system: HCT-116 colon
MCF7 breast = test system: MCF7 breast
RXF 393 renal = test system: RXF 393 renal
SF-268 CNS = test system: SF-268 CNS
KM12 colon = test system: KM12 colon
ACHN renal = test system: ACHN renal
OVCAR-5 ovarian = test system: OVCAR-5 ovarian

Structure (SMILES): CC(=O)OCC1CCC(=C2C(=O)OC(C)(C)OC2=O)N1 (stereo unspecified)
- TGI (TK-10 renal): > 100 µM
- TGI (786-0 renal): > 100 µM
- TGI (COLO 205 colon): > 100 µM
- TGI (SF-539 CNS): > 100 µM
- TGI (NCI/ADR-RES ovarian): > 100 µM
- TGI (CCRF-CEM leukemia): > 100 µM
- TGI (HCT-15 colon): > 100 µM
- TGI (SNB-75 CNS): > 100 µM
- TGI (EKVX NSCLC): > 100 µM
- TGI (MALME-3M melanoma): > 100 µM
- TGI (SK-MEL-5 melanoma): > 100 µM
- TGI (HOP-92 NSCLC): > 100 µM
- TGI (NCI-H460 lung): > 100 µM
- TGI (U251 CNS): > 100 µM
- TGI (MOLT-4 leukemia): > 100 µM
- TGI (CAKI-1 renal): > 100 µM
- TGI (HCC-2998 colon): > 100 µM
- TGI (OVCAR-4 ovarian): > 100 µM
- TGI (IGROV1 ovarian): > 100 µM
- TGI (SF-295 CNS): > 100 µM
- TGI (MDA-MB-435): > 100 µM
- TGI (NCI-H226 lung): > 100 µM
- TGI (SK-MEL-2 melanoma): > 100 µM
- TGI (UO-31 renal): > 100 µM
- TGI (HOP-62 NSCLC): > 100 µM
- TGI (SW-620 colon): > 100 µM
- TGI (SK-MEL-28 melanoma): > 100 µM
- TGI (UACC-62 melanoma): > 100 µM
- TGI (HL-60(TB) leukemia): > 100 µM
- TGI (HT29 colon): > 100 µM
- TGI (M14 melanoma): > 100 µM
- TGI (T-47D breast): > 100 µM
- TGI (SK-OV-3 ovarian): > 100 µM
- TGI (SNB-19 CNS): > 100 µM
- TGI (UACC-257 melanoma): > 100 µM
- TGI (K-562 leukemia): > 100 µM
- TGI (NCI-H522 lung): > 100 µM
- TGI (LOX IMVI melanoma): > 100 µM
- TGI (NCI-H23 lung): > 100 µM
- TGI (BT-549 breast): > 100 µM
- TGI (PC-3 prostate): > 100 µM
- TGI (OVCAR-8 ovarian): > 100 µM
- TGI (OVCAR-3 ovarian): > 100 µM
- TGI (SN12C renal): > 100 µM
- TGI (RPMI-8226 leukemia): > 100 µM
- TGI (MDA-N): > 100 µM
- TGI (HS 578T breast): > 100 µM
- TGI (A549 NSCLC): > 100 µM
- TGI (MDA-MB-231 breast): > 100 µM
- TGI (DU-145 prostate): > 100 µM
- TGI (SR leukemia): > 100 µM
- TGI (HCT-116 colon): > 100 µM
- TGI (MCF7 breast): > 100 µM
- TGI (RXF 393 renal): > 100 µM
- TGI (SF-268 CNS): > 100 µM
- TGI (KM12 colon): > 100 µM

Structure (SMILES): O=C1c2ccccc2-c2c1c1ccccc1c(=O)n2-c1cccnc1
- TGI (TK-10 renal): > 100 µM
- TGI (786-0 renal): 44.7 µM
- TGI (COLO 205 colon): > 100 µM
- TGI (SF-539 CNS): > 71.1 µM
- TGI (NCI/ADR-RES ovarian): > 100 µM
- TGI (HCT-15 colon): > 100 µM
- TGI (ACHN renal): > 100 µM
- TGI (SNB-75 CNS): > 100 µM
- TGI (EKVX NSCLC): > 100 µM
- TGI (MALME-3M melanoma): > 100 µM
- TGI (SK-MEL-5 melanoma): > 100 µM
- TGI (NCI-H460 lung): > 100 µM
- TGI (U251 CNS): > 100 µM
- TGI (MOLT-4 leukemia): > 28.4 µM
- TGI (CAKI-1 renal): > 100 µM
- TGI (HCC-2998 colon): > 100 µM
- TGI (OVCAR-5 ovarian): > 100 µM
- TGI (OVCAR-4 ovarian): > 100 µM
- TGI (IGROV1 ovarian): > 100 µM
- TGI (SF-295 CNS): > 100 µM
- TGI (MDA-MB-435): > 100 µM
- TGI (NCI-H226 lung): > 100 µM
- TGI (SK-MEL-2 melanoma): > 100 µM
- TGI (UO-31 renal): > 100 µM
- TGI (HOP-62 NSCLC): 41.8 µM
- TGI (SW-620 colon): > 100 µM
- TGI (SK-MEL-28 melanoma): > 100 µM
- TGI (UACC-62 melanoma): > 85.8 µM
- TGI (HT29 colon): > 100 µM
- TGI (M14 melanoma): > 100 µM
- TGI (T-47D breast): > 100 µM
- TGI (SK-OV-3 ovarian): > 100 µM
- TGI (SNB-19 CNS): > 100 µM
- TGI (UACC-257 melanoma): > 100 µM
- TGI (K-562 leukemia): > 100 µM
- TGI (NCI-H522 lung): 39.3 µM
- TGI (LOX IMVI melanoma): > 100 µM
- TGI (NCI-H23 lung): > 100 µM
- TGI (BT-549 breast): > 100 µM
- TGI (PC-3 prostate): > 100 µM
- TGI (OVCAR-8 ovarian): > 100 µM
- TGI (OVCAR-3 ovarian): > 100 µM
- TGI (SN12C renal): > 100 µM
- TGI (RPMI-8226 leukemia): > 100 µM
- TGI (MDA-N): > 100 µM
- TGI (HS 578T breast): > 100 µM
- TGI (A549 NSCLC): > 100 µM
- TGI (MDA-MB-231 breast): > 100 µM
- TGI (DU-145 prostate): > 100 µM
- TGI (SR leukemia): > 100 µM
- TGI (HCT-116 colon): > 100 µM
- TGI (MCF7 breast): > 100 µM
- TGI (RXF 393 renal): > 100 µM
- TGI (SF-268 CNS): > 100 µM
- TGI (KM12 colon): > 100 µM
